Measured values as given in ChEMBL document CHEMBL1201862, “PubChem BioAssay data set” (2004).
Calls of active or inactive are those of the source. Rule as the data show it, for most assays here: actives have a measured IC50 and inactives only a lower limit.

Tests used:
INS1 [1] = assay: inhibitors of cytokine-induced nitrite release, dose response, cell-based, Griess absorbance, INS-1E, dry powder (AID 488866); assay type: functional; settings: Rattus norvegicus
INS1 [2] = assay: protection from cytokine-driven beta-cell apoptosis, dose response, JC-1 fluorescence, INS-1E, dry powder, set 2 (AID 488867); assay type: functional, cell-based; settings: Rattus norvegicus
INS1 [3] = assay: inhibitors of cytokine-induced nitrite release, dose response, cell-based, Griess absorbance, INS-1E, dry powder, set 2 (AID 488868); assay type: functional; settings: Rattus norvegicus
INS1 [4] = assay: protection from cytokine-induced mitochondrial depolarization, dose response, cell-based, INS-1E, JC-1 fluorescence ratio, dry powder (AID 488931); assay type: functional; settings: Rattus norvegicus
INS1 [5] = assay: protection of INS-1E cells from cytokine death, dose response, ATP luminescence, dry powder (AID 488844); assay type: functional, cell-based; settings: Rattus norvegicus
[6] = target: T1, Sentrin-specific protease 8 (Homo sapiens, UniProt Q96LD8); assay: SENP8 protease inhibitors, SAR follow-up, biochemical, luminescence, set 2 (AID 588601); assay type: functional
T1 sequence (Q96LD8 whole entry): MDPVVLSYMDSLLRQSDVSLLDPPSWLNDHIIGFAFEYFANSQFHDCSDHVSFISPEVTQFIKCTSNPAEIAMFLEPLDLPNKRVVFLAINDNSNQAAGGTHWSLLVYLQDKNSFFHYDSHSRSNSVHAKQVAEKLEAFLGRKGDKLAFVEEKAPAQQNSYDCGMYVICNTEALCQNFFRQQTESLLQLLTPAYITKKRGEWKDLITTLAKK

[7] = target: T2, Sentrin-specific protease 7 (Homo sapiens, UniProt Q9BQF6); assay: SENP7 protease inhibitors, SAR follow-up, biochemical, luminescence (AID 504497); assay type: functional
T2 sequence (Q9BQF6 whole entry): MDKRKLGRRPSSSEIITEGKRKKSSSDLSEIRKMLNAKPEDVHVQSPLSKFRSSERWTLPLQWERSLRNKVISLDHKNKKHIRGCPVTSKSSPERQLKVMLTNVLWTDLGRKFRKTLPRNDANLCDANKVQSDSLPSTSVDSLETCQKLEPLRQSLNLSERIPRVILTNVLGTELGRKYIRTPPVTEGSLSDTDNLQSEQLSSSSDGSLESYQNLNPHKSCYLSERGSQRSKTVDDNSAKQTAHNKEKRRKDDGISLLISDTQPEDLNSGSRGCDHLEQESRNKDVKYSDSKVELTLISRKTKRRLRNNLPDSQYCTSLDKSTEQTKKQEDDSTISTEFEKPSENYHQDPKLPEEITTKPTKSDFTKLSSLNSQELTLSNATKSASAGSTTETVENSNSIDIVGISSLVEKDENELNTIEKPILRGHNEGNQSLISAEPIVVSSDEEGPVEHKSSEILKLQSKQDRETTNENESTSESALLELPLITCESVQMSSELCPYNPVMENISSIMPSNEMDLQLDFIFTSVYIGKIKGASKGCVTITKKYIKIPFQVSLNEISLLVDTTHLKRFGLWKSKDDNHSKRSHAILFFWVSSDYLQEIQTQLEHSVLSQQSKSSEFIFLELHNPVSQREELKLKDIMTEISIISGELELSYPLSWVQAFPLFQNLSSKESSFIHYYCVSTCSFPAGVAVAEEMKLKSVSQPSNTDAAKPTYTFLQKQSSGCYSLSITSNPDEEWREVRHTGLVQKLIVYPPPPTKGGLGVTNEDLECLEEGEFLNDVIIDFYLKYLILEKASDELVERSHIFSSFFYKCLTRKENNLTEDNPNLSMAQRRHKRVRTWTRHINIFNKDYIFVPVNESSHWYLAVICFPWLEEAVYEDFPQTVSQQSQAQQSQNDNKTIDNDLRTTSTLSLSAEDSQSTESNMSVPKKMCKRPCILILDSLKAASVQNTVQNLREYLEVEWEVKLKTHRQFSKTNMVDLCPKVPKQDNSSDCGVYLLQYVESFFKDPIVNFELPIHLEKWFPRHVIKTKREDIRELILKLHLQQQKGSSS

Caspase-3 [8] = target: T3, Caspase-3 (Homo sapiens, UniProt P42574); assay: caspase-3 inhibitors as off-family protease, SAR follow-up, selectivity assay for SENP protease inhibitor project, biochemical, luminescence, set 2 (AID 588599); assay type: functional
T3 sequence (P42574 whole entry): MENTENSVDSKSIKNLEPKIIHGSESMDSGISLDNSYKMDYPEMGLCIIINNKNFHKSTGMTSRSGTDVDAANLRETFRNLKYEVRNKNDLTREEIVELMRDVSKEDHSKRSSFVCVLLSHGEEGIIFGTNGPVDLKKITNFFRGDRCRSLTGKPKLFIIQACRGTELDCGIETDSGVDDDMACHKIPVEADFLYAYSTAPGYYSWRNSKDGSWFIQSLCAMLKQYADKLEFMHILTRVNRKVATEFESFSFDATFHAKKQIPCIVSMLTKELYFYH

Caspase-3 [9] = target: T3, Caspase-3; assay: SAR Analysis of small molecule inhibitors of Sentrin-specific proteases (SENPs) using a Caspase-3 Selectivity assay. [Related pubchem assays (depositor defined):AID2540, AID2599, AID434973, AID489001]; assay type: functional
[10] = target: T1, Sentrin-specific protease 8; assay: SENP8 protease inhibitors, SAR follow-up, biochemical, luminescence (AID 504501); assay type: functional
[11] = target: T4, Sentrin-specific protease 6 (Homo sapiens, UniProt Q9GZR1); assay: SAR Analysis of small molecule inhibitors of Sentrin-specific protease 6 (SENP6) using a Luminescent assay. [Related pubchem assays (depositor defined):AID2582, AID2599]; assay type: functional
T4 sequence (Q9GZR1 whole entry): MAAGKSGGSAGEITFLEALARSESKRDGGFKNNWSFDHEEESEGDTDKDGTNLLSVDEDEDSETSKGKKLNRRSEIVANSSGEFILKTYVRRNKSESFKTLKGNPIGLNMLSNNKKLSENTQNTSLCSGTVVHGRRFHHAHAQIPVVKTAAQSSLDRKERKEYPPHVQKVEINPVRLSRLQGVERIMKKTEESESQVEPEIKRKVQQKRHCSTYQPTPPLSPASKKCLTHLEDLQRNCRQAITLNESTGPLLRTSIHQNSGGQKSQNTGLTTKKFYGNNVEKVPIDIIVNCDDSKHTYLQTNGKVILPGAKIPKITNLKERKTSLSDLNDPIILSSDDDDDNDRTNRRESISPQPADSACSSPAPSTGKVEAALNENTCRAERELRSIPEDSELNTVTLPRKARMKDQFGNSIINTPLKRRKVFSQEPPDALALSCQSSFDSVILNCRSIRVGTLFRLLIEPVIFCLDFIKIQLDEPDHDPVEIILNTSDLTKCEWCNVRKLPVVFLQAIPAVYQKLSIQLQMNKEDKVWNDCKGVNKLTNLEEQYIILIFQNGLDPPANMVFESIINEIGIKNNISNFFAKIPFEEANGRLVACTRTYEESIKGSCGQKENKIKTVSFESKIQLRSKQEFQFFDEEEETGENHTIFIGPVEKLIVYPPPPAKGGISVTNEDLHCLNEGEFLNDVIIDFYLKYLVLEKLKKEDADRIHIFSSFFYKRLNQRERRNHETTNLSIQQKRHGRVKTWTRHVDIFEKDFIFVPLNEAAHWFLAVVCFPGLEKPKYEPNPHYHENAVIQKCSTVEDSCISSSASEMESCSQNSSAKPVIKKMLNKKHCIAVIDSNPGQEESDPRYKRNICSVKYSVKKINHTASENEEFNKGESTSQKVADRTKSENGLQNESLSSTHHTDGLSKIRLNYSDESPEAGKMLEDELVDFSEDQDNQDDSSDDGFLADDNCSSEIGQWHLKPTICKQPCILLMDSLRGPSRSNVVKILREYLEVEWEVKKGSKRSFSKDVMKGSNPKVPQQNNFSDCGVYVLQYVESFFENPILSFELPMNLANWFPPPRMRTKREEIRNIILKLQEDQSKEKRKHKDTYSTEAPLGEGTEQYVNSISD

[12] = target: T2, Sentrin-specific protease 7; assay: SENP7 protease inhibitors, SAR follow-up, biochemical, luminescence, set 2 (AID 588600); assay type: functional
[13] = target: T4, Sentrin-specific protease 6; assay: SENP6 protease inhibitors, SAR follow-up, biochemical, luminescence, set 2 (AID 588598); assay type: functional

Row | IC50 [7] | IC50 (Caspase-3 [8]) | IC50 (Caspase-3 [9]) | IC50 [11] | IC50 [12] | IC50 [13] | SMILES | AC50 (INS1 [1]) | AC50 (INS1 [2]) | AC50 (INS1 [3]) | AC50 (INS1 [4]) | AC50 (INS1 [5]) | IC50 [6] | IC50 [10]
1 |  |  |  |  |  |  | C[C@@H]1CN([C@@H](C)CO)C(=O)c2cccc(NC(=O)Nc3cccc4ccccc34)c2O[C@H]1CN(C)S(=O)(=O)c1ccc(Cl)cc1 | > 195 µM (inactive) | 90.1 µM (active) | 44.2 µM (active) | 41.3 µM (active) | 31.1 µM (active) |  | 
2 | 1.5 µM (active) | 4.01 µM (active) | 4.4 µM (active) | 1.9 µM (active) | 2.22 µM (active) | 2.04 µM (active) | CCCCc1ccc2nc(NC(=O)c3cccs3)sc2c1 |  |  |  |  |  | 2.07 µM (active) | 2.1 µM (active)
